This note sets out measurements from PubChem BioAssay (NCI).

Some test systems named below: HOP-62 NSCLC; TK-10 renal; HS 578T breast; SN12C renal; LOX IMVI melanoma; UACC-62 melanoma; CAKI-1 renal; OVCAR-5 ovarian; COLO 205 colon; NCI-H522 lung.
Holding throughout (experiment): DTP human tumour cell line panel, 48 h

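Protocol summary: plate cells (96-well), add compound at 5 concentrations, incubate 48 h, interpolate endpoints linearly. At the TGI there is no net growth.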 Some results are limits rather than exact numbers.

Take `CCN1CC(C)Cn2c(=O)[nH]c3cc(Br)cc1c32` (centres undefined): the TGI in the experiment with HOP-62 NSCLC was more than 100 µM; in the experiment with TK-10 renal it was more than 100 µM; in the experiment on HS 578T breast, 74.3 µM; in the experiment with SN12C renal, more than 100 µM; in the experiment on LOX IMVI melanoma, more than 100 µM; with UACC-62 melanoma, more than 100 µM. Also, the TGI in the experiment with CAKI-1 renal, with OVCAR-5 ovarian and in the experiment with COLO 205 colon was more than 100 µM in each case.
On to `CCC(CCCN)Nc1cc(OC)cc2cccnc12` (centres undefined), for which the TGI in the experiment with HOP-62 NSCLC, in the experiment on TK-10 renal, in the experiment with HS 578T breast, in the experiment on SN12C renal, in the experiment on LOX IMVI melanoma and in the experiment on UACC-62 melanoma was more than 100 µM in each case. Further, the TGI in the experiment with CAKI-1 renal, in the experiment with OVCAR-5 ovarian and in the experiment on COLO 205 colon was more than 100 µM in each case.
Take `C=CC(=O)N1C/C(=C\c2ccc(N(C)C)cc2)C(=O)/C(=C/c2ccc(N(C)C)cc2)C1`: the concentration for total growth inhibition (TGI) with HOP-62 NSCLC, in the experiment on TK-10 renal, in the experiment on HS 578T breast, with SN12C renal, in the experiment on LOX IMVI melanoma and in the experiment on UACC-62 melanoma was more than 100 µM each time. In addition, the concentration for total growth inhibition (TGI) with CAKI-1 renal, in the experiment on OVCAR-5 ovarian and in the experiment on COLO 205 colon was more than 100 µM each time.
On to `CCCC/C=C1\CCC(CN2CCCCC2)C1=O` (centres undefined), for which the total growth inhibition concentration (TGI) in the experiment on HOP-62 NSCLC was 49.4 µM; in the experiment on TK-10 renal, 28.1 µM; with HS 578T breast, more than 100 µM; in the experiment with SN12C renal it was 25.9 µM; in the experiment on LOX IMVI melanoma it was more than 48.2 µM; in the experiment with UACC-62 melanoma it was 24.8 µM. In addition, the TGI amounted to 17.8 µM with CAKI-1 renal, 49.9 µM in the experiment with OVCAR-5 ovarian and 29 µM in the experiment with COLO 205 colon.
For `Oc1ccc(Cl)cc1C1=N/C(=N\CN2CCN(C/N=C3/N=C(c4cc(Cl)ccc4O)CC(c4ccccc4)N3)CC2)NC(c2ccccc2)C1` (centres undefined), the total growth inhibition concentration (TGI) in the experiment with HOP-62 NSCLC was more than 100 µM; in the experiment with TK-10 renal, more than 100 µM; in the experiment on HS 578T breast, more than 100 µM; in the experiment with SN12C renal, 64.3 µM; in the experiment with LOX IMVI melanoma, more than 100 µM; in the experiment with UACC-62 melanoma, more than 100 µM. Further, the TGI with CAKI-1 renal is 97.6 µM; in the experiment with OVCAR-5 ovarian, more than 100 µM; in the experiment with COLO 205 colon it was more than 100 µM.
As to `CCCCOC(=O)CNC(=O)OCCCCC#CC#CCCCCOC(=O)NCC(=O)OCCCC`, the total growth inhibition concentration (TGI) in the experiment on HOP-62 NSCLC, in the experiment with TK-10 renal, in the experiment with SN12C renal, in the experiment with LOX IMVI melanoma, in the experiment on UACC-62 melanoma and with CAKI-1 renal was more than 100 µM throughout. For the same molecule, the concentration for total growth inhibition (TGI) with NCI-H522 lung, in the experiment on OVCAR-5 ovarian and with COLO 205 colon was more than 100 µM each time.
Regarding `Cc1ccc2c(=O)cc(-c3csc4ccccc34)[nH]c2n1`, the TGI with HOP-62 NSCLC is 21.8 µM; with TK-10 renal it was 9.78 µM; in the experiment with SN12C renal it was 10.9 µM; with LOX IMVI melanoma it was more than 100 µM; in the experiment on UACC-62 melanoma, more than 76.8 µM; in the experiment on CAKI-1 renal, 0.228 µM. The TGI in the experiment on NCI-H522 lung is less than 0.01 µM; in the experiment on OVCAR-5 ovarian, 6.47 µM; with COLO 205 colon, 0.756 µM.
Regarding `CCCCCc1cc(OC(=O)c2c(O)cc(OC)cc2CCCCC)cc(O)c1C(=O)O`, the concentration for total growth inhibition (TGI) in the experiment with HOP-62 NSCLC turned out to be 30.7 µM; in the experiment on TK-10 renal it was 36.6 µM; in the experiment with SN12C renal, 32.8 µM; in the experiment with LOX IMVI melanoma, 33.1 µM; in the experiment on UACC-62 melanoma, 28.9 µM; in the experiment on CAKI-1 renal it was 34.5 µM. In addition, the values for the TGI in the experiment on NCI-H522 lung, in the experiment on OVCAR-5 ovarian and in the experiment on COLO 205 colon were 28.2 µM, 34.1 µM and 34.5 µM, respectively.
Take `CCC(C)[C@H](NC(=O)N[C@H](C)c1ccccc1)C(=O)OC` (some centres undefined): the total growth inhibition concentration (TGI) in the experiment on HOP-62 NSCLC, in the experiment with TK-10 renal, in the experiment with SN12C renal, with LOX IMVI melanoma, in the experiment with UACC-62 melanoma and with CAKI-1 renal was more than 100 µM in each case. In addition, the concentration for total growth inhibition (TGI) with OVCAR-5 ovarian and in the experiment on COLO 205 colon was more than 100 µM each time.
Regarding `Cc1ccc(C)n2c1nc1ccc3ccccc3c12`, the TGI in the experiment on HOP-62 NSCLC, in the experiment on TK-10 renal, with HS 578T breast, with SN12C renal, in the experiment with UACC-62 melanoma and in the experiment on OVCAR-5 ovarian was more than 100 µM in each case. The same molecule had a TGI with COLO 205 colon of more than 100 µM.
Regarding `C=CCC(C)C12CCNC(Cc3ccc(O)cc31)C2C` (centres undefined), the concentration for total growth inhibition (TGI) in the experiment with HOP-62 NSCLC, in the experiment on TK-10 renal, in the experiment on HS 578T breast, in the experiment on SN12C renal, with LOX IMVI melanoma and in the experiment with UACC-62 melanoma was more than 100 µM throughout. Besides, the total growth inhibition concentration (TGI) in the experiment with OVCAR-5 ovarian and with COLO 205 colon was more than 100 µM throughout.
Regarding `COc1ccc(N[C@H](CS(=O)c2ccc(C)cc2)c2ccc(F)cc2)cc1` (some centres undefined), the TGI with HOP-62 NSCLC, in the experiment on TK-10 renal, in the experiment on SN12C renal, with LOX IMVI melanoma, in the experiment with UACC-62 melanoma and with CAKI-1 renal was more than 100 µM throughout. For the same molecule, the concentration for total growth inhibition (TGI) in the experiment with NCI-H522 lung, with OVCAR-5 ovarian and in the experiment with COLO 205 colon was more than 100 µM each time.
Take `CN(C)c1ccc(/C=N/Nc2nc3ccccc3c(=O)n2-c2ccccc2)cc1`: the concentration for total growth inhibition (TGI) is 97.8 µM in the experiment on HOP-62 NSCLC; more than 100 µM in the experiment on TK-10 renal; more than 100 µM with SN12C renal; more than 100 µM in the experiment on LOX IMVI melanoma; 93.6 µM in the experiment with UACC-62 melanoma; more than 100 µM in the experiment with CAKI-1 renal. The total growth inhibition concentration (TGI) in the experiment with NCI-H522 lung, with OVCAR-5 ovarian and in the experiment on COLO 205 colon was more than 100 µM each time.
Regarding `COc1ccc(CCn2cnc3ccccc32)cc1`, the TGI with HOP-62 NSCLC, in the experiment with TK-10 renal, with HS 578T breast, in the experiment with SN12C renal, with UACC-62 melanoma and with CAKI-1 renal was more than 100 µM throughout. Also, the concentration for total growth inhibition (TGI) with NCI-H522 lung, in the experiment on OVCAR-5 ovarian and in the experiment on COLO 205 colon was more than 100 µM in each case.
In the case of `CC(=O)C(C(C)=O)=C1CCCC(O)O1` (centres undefined), the TGI in the experiment with HOP-62 NSCLC, in the experiment with TK-10 renal, in the experiment with HS 578T breast, in the experiment on SN12C renal, with UACC-62 melanoma and in the experiment on OVCAR-5 ovarian was more than 100 µM each time. For the same molecule, the TGI with COLO 205 colon is more than 100 µM.

As usually defined, the TGI is the concentration giving total growth inhibition.
